Reference: US12186283B2, “Bismuth-thiol compositions and methods of use” (Microbion Corporation, priority 2018, dated 2025)
Values after ≈ are worked out from the molar mass of the structure shown. Where two headings read alike, the source gives them in different places.

Legend:
Candida spp. [1] = details: C. parapsilosis ATCC 22019, CLSI established QC range, cited from earlier work
Aspergillus spp. [2] = assay: Broth microdilution MIC/MEC, mold (Example 13); format: cell-based
S. aureus ATCC 29213 = assay: Broth microdilution MIC, QC organism (Example 13, Table 110); format: cell-based, Staphylococcus aureus
Description: (§1) MECs were only reported where observed.

Aspergillus spp. [3] = details: cited from earlier work
[4] = tested on: Candida spp. (C. parapsilosis, C. albicans, C. glabrata, C. tropicalis); assay: Broth microdilution MIC, yeast (Example 11); format: cell-based
Candida krusei [5] = assay: Broth microdilution MIC, yeast (Example 13); format: cell-based; details: C. krusei ATCC 6258 (QC, Table 110), comparators, single value
[6] = tested on: Candida spp. (C. parapsilosis, C. albicans, C. glabrata, C. tropicalis); details: C. parapsilosis MMX 2323 (ATCC 22019), cited from earlier work
E. coli ATCC 25922 = assay: Broth microdilution MIC, QC organism (Example 13, Table 110); format: cell-based, Escherichia coli
Description: as §1

Candida spp. [7] = assay: Broth microdilution MIC, yeast (Example 13), group statement and QC; format: cell-based; details: C. parapsilosis ATCC 22019, comparators, single value
Candida krusei [8] = details: C. krusei ATCC 6258, CLSI established QC range, cited from earlier work
[9] = tested on: Enterococcus spp. (E. faecalis, E. faecium); assay: Broth microdilution MIC (Example 11); format: cell-based; details: VRE, VRE
[10] = tested on: beta-hemolytic streptococci (S. pyogenes, S. agalactiae); assay: Broth microdilution MIC (Example 11); format: cell-based, Streptococcus pyogenes, Streptococcus agalactiae
[11] = tested on: S. pneumoniae (pneumococci); details: S. pneumoniae MMX 6837 (ATCC 49619); cited from earlier work
[12] = tested on: Staphylococcus aureus (MRSA); details: S. aureus MMX 101 (ATCC 29213); cited from earlier work
[13] = tested on: S. pneumoniae (pneumococci); assay: Broth microdilution MIC (Example 11); format: cell-based, Streptococcus pneumoniae
[14] = A. flavus ATCC 204304 (QC, Table 110)
[15] = A. fumigatus ATCC MYA-3626 (QC, Table 110)
[16] = A. flavus ATCC 204304, CLSI established QC range
[17] = A. fumigatus ATCC MYA-3626, CLSI established QC range
[18] = S. agalactiae MMX 3741, ERY^R CC^R
[19] = S. agalactiae MMX 3743, ERY^R CC^R
[20] = S. agalactiae MMX 4077, ERY^R CC^R
[21] = S. agalactiae MMX 4079, ERY^R CC^R Pen^R MEM^R
[22] = S. agalactiae MMX 4086, ERY^R CC^R

C[C@@H]1[C@H](O)[C@@H](C)/C=C/C=C/C=C/C=C/C=C/C=C/C=C/[C@H](O[C@@H]2O[C@H](C)[C@@H](O)[C@H](N)[C@@H]2O)C[C@@H]2O[C@](O)(C[C@@H](O)C[C@@H](O)[C@H](O)CC[C@@H](O)C[C@@H](O)CC(=O)O[C@H]1C)C[C@H](O)[C@H]2C(=O)O [Amphotericin B]
QC Range 24 hr (Candida spp. [1]): 0.25-2
QC Range 48 hr (Candida spp. [1]): 0.5-4
MIC 24 hr (Aspergillus spp. [2]; [14]): 0.5 mg/L (≈ 0.541 µM)
MIC 48 hr (Aspergillus spp. [2]; [14]): 1 mg/L (≈ 1.08 µM)
MIC 24 hr (Aspergillus spp. [2]; [15]): 0.5 mg/L (≈ 0.541 µM)
MIC 48 hr (Aspergillus spp. [2]; [15]): 1 mg/L (≈ 1.08 µM)
MIC 24 hr (S. aureus ATCC 29213): > 64 mg/L
QC Range 48 hr (Aspergillus spp. [3]; [16]): 0.5-4
QC Range 48 hr (Aspergillus spp. [3]; [17]): 0.5-4
MIC ([4]; C. albicans MMX 7039, Sensitive, 24 hr): 0.5, 0.5 μg/mL
MIC ([4]; C. albicans MMX 7039, Sensitive, 48 hr): 0.5, 0.5 μg/mL
MIC ([4]; C. albicans MMX 7055, Sensitive, 24 hr): 0.25 µg/mL (≈ 0.271 µM)
MIC ([4]; C. albicans MMX 7055, Sensitive, 48 hr): 0.5 µg/mL (≈ 0.541 µM)
MIC ([4]; C. glabrata MMX 7086, FLU^R, 24 hr): 0.5 µg/mL (≈ 0.541 µM)
MIC ([4]; C. glabrata MMX 7086, FLU^R, 48 hr): 1 µg/mL (≈ 1.08 µM)
MIC ([4]; C. glabrata MMX 7318, FLU^R, 24 hr): 0.5 µg/mL (≈ 0.541 µM)
MIC ([4]; C. glabrata MMX 7318, FLU^R, 48 hr): 1 µg/mL (≈ 1.08 µM)
MIC ([4]; C. parapsilosis MMX 2323 (ATCC 22019), QC, 24 hr): 0.5 µg/mL (≈ 0.541 µM)
MIC ([4]; C. parapsilosis MMX 2323 (ATCC 22019), QC, 48 hr): 1 µg/mL (≈ 1.08 µM)
MIC ([4]; C. parapsilosis MMX 7370, FLU^R, 24 hr): 0.5 µg/mL (≈ 0.541 µM)
MIC ([4]; C. parapsilosis MMX 7370, FLU^R, 48 hr): 1 µg/mL (≈ 1.08 µM)
MIC ([4]; C. parapsilosis MMX 7555, FLU^R, 24 hr): 0.5, 0.5 μg/mL
MIC ([4]; C. parapsilosis MMX 7555, FLU^R, 48 hr): 0.5, 0.5 μg/mL
MIC ([4]; C. tropicalis MMX 7247, FLU^R, 24 hr): 0.5 µg/mL (≈ 0.541 µM)
MIC ([4]; C. tropicalis MMX 7247, FLU^R, 48 hr): 1 µg/mL (≈ 1.08 µM)
MIC ([4]; C. tropicalis MMX 7248, FLU^R, 24 hr): 0.5 µg/mL (≈ 0.541 µM)
MIC ([4]; C. tropicalis MMX 7248, FLU^R, 48 hr): 1 µg/mL (≈ 1.08 µM)
MIC ([4]; C. tropicalis MMX 7360, FLU^R, 24 hr): 0.5, 0.5 μg/mL
MIC ([4]; C. tropicalis MMX 7360, FLU^R, 48 hr): 0.5, 0.5 μg/mL
MIC 24 hr (Candida krusei [5]): 0.5 mg/L (≈ 0.541 µM)
MIC 48 hr (Candida krusei [5]): 0.5 mg/L (≈ 0.541 µM)
MIC, CLSI QC range ([6]; 24 hr): 0.25 to 2 mg/L
MIC, CLSI QC range ([6]; 48 hr): 0.5 to 4 mg/L
MIC 24 hr (E. coli ATCC 25922): > 64 mg/L
MIC 24 hr (Candida spp. [7]): 0.5 mg/L (≈ 0.541 µM)
MIC 48 hr (Candida spp. [7]): 0.5 mg/L (≈ 0.541 µM)
QC Range 24 hr (Candida krusei [8]): 0.5-2
QC Range 48 hr (Candida krusei [8]): 1-4

CC[C@H]1OC(=O)[C@H](C)[C@@H](O[C@H]2C[C@@](C)(OC)[C@@H](O)[C@H](C)O2)[C@H](C)[C@@H](O[C@@H]2O[C@H](C)C[C@H](N(C)C)[C@H]2O)[C@](C)(O)C[C@@H](C)C(=O)[C@H](C)[C@@H](O)[C@]1(C)O [Erythromycin]
MIC ([9]; Enterococcus faecium, E. faecium MMX 485, vanA, LevR, CipR, EryR, read-out: MIC): > 64 mg/L
MIC ([10]; S. agalactiae MMX 3741, ERY^R CC^R, read-out: MIC): 8 mg/L (≈ 10.9 µM)
MIC ([10]; S. agalactiae MMX 3743, ERY^R CC^R, read-out: MIC): > 8 mg/L
MIC ([10]; S. agalactiae MMX 4077, ERY^R CC^R, read-out: MIC): > 8 mg/L
MIC ([10]; S. agalactiae MMX 4079, ERY^R CC^R Pen^R MEM^R, read-out: MIC): > 8 mg/L
MIC ([10]; S. agalactiae MMX 4086, ERY^R CC^R, read-out: MIC): > 8 mg/L
MIC, CLSI QC range [11]: (0.03-0.12) μg/mL
CLSI QC range (MIC) [12]: (0.25-1) μg/mL

C[C@@H](c1ncncc1F)[C@](O)(Cn1cncn1)c1ccc(F)cc1F [Voriconazole]
QC Range 24 hr (Candida spp. [1]): 0.015-0.12
QC Range 48 hr (Candida spp. [1]): 0.03-0.25
MIC 24 hr (Aspergillus spp. [2]; [14]): 0.12 mg/L (≈ 0.344 µM)
MIC 24 hr (Aspergillus spp. [2]; [15]): 0.25 mg/L (≈ 0.716 µM)
MIC 24 hr (S. aureus ATCC 29213): > 64 mg/L
QC Range 48 hr (Aspergillus spp. [3]; [16]): 0.5-4
QC Range 48 hr (Aspergillus spp. [3]; [17]): 0.25-1
MIC 24 hr (Candida krusei [5]): 0.12 mg/L (≈ 0.344 µM)
MIC 48 hr (Candida krusei [5]): 0.5 mg/L (≈ 1.43 µM)
MIC 24 hr (E. coli ATCC 25922): > 64 mg/L
MIC 48 hr (Candida spp. [7]): 0.12 mg/L (≈ 0.344 µM)
QC Range 24 hr (Candida krusei [8]): 0.06-0.5
QC Range 48 hr (Candida krusei [8]): 0.12-1

OC(Cn1cncn1)(Cn1cncn1)c1ccc(F)cc1F [fluconazole, reference compound]
QC Range 24 hr (Candida spp. [1]): 0.5-4
QC Range 48 hr (Candida spp. [1]): 1-4
activity (Aspergillus spp. [2]; Aspergillus spp.): inactive
MIC 24 hr (S. aureus ATCC 29213): > 64 mg/L
MIC 24 hr (Candida krusei [5]): 16 mg/L (≈ 52.2 µM)
MIC 48 hr (Candida krusei [5]): 32 mg/L (≈ 104 µM)
MIC, CLSI QC range ([6]; 24 hr): 0.5 to 4 mg/L
MIC, CLSI QC range ([6]; 48 hr): 1 to 4 mg/L
MIC 24 hr (E. coli ATCC 25922): > 64 mg/L
MIC 24 hr (Candida spp. [7]): 1 mg/L (≈ 3.27 µM)
QC Range 24 hr (Candida krusei [8]): 8-64
QC Range 48 hr (Candida krusei [8]): 16-128

CN[C@H](CC(C)C)C(=O)N[C@H]1C(=O)N[C@@H](CC(N)=O)C(=O)N[C@H]2C(=O)N[C@H]3C(=O)N[C@H](C(=O)N[C@H](C(=O)O)c4cc(O)cc(O)c4-c4cc3ccc4O)[C@H](O)c3ccc(c(Cl)c3)Oc3cc2cc(c3O[C@@H]2O[C@H](CO)[C@@H](O)[C@H](O)[C@H]2O[C@H]2C[C@](C)(N)[C@H](O)[C@H](C)O2)Oc2ccc(cc2Cl)[C@H]1O [vancomycin, reference compound]
MIC ([9]; E. faecalis MMX 8961, LevR, CipR, EryR): >64 mg/L
MIC ([9]; E. faecalis MMX 8962, LevR, CipR, EryR): >64 mg/L
MIC ([9]; E. faecium MMX 485, vanA, LevR, CipR, EryR): >64 mg/L
MIC ([9]; Enterococcus faecalis): > 64 mg/L
MIC ([9]; Enterococcus faecium): > 64 mg/L
MIC [10, 18]: 0.5 mg/L (≈ 0.345 µM)
MIC [10, 19]: 0.5 mg/L (≈ 0.345 µM)
MIC [10, 20]: 0.5 mg/L (≈ 0.345 µM)
MIC [10, 21]: 2 mg/L (≈ 1.38 µM)
MIC [10, 22]: 1 mg/L (≈ 0.69 µM)
MIC, CLSI QC range [11]: (0.12-0.5) μg/mL
CLSI QC range (MIC) [12]: (0.5-2) μg/mL

Penicillin
MIC ([13]; S. pneumoniae MMX 880, Lev^R SXT^R CC^R Ery^R Pen^R): 2 mg/L
MIC ([13]; S. pneumoniae MMX 937, Mem^R SXT^R CC^R Ery^R Pen^R): 4 mg/L
MIC ([13]; S. pneumoniae MMX 3959, CC^R Ery^R): 0.12 mg/L
MIC ([13]; S. pneumoniae MMX 5440, Mem^R SXT^R CC^R Ery^R Pen^R): 4 mg/L
MIC ([13]; S. pneumoniae MMX 5445, Mem^R SXT^R CC^R Ery^R Pen^R): 4 mg/L
MIC ([13]; S. pneumoniae MMX 6837 (ATCC 49619), QC): 0.25 mg/L
MIC ([13]; S. pneumoniae MMX 8133, Mem^R SXT^R CC^R Ery^R Pen^R): 4 mg/L
MIC [10, 18]: 0.03 mg/L
MIC [10, 19]: 0.06 mg/L
MIC [10, 20]: 0.06 mg/L
MIC [10, 21]: 2 mg/L
MIC [10, 22]: 0.06 mg/L
MIC ([10]; S. pyogenes MMX 3068, Ery^R): ≤0.008 mg/L
MIC ([10]; S. pyogenes MMX 3820, ERY^R CLI^R): ≤0.008 mg/L
MIC ([10]; S. pyogenes MMX 3919, ERY^R): ≤0.008 mg/L
MIC ([10]; S. pyogenes MMX 3929, ERY^R CC^R): ≤0.008 mg/L
MIC ([10]; S. pyogenes MMX 5091, ERY^R CC^R): ≤0.008 mg/L
MIC, CLSI QC range [11]: (0.25-1) μg/mL
